Measurements from US4954510A, “Antiviral agent containing lactam compound” (Meiji Seika Kaisha, Ltd., priority 1987, dated 1990).
Converted amounts (≈) assume the structure as drawn. Counter-ions that a name gives are not always drawn. Like-named read-outs stand apart in the source and are kept apart here.

Experiments:
HIV = assay: in vitro anti-HIV activity: decrease in the cytocidal effect of HIV on MT-2 cells; assay type: cell-based; conditions: for EC50: Human immunodeficiency virus 1, MT2, 168 h, read-out: EC50 (concentration giving a 50% decrease in the cytocidal effect of HIV); for TI50 (IC50/EC50): ratio IC50/EC50, 10080 min
Method: (§1) Namely, the host human T-lymphotropic MT-2 cell line is transplanted on a microtiter plate and a series of dilutions of the test compounds shown in the table below are added with or without addition of HIV, followed by incubation for 7 days. For evaluation, the residual viable cell count is then determined by colorimetry.
(§2) In the above table, EC50 means the concentration of the test compound giving a 50% decrease in the cytocidal effect of HIV and IC50 means the concentration of the test compound giving a 50% inhibition of growth of normal non-infected cells.

[1] = test system: human T-lymphotropic MT-2 cell line; assay: inhibition of growth of normal non-infected cells (MT-2); assay type: cell-based; conditions: Homo sapiens, MT2, 168 h; MT-2 cells without HIV, 7 days, viable cell count by colorimetry; read-out: IC50 (concentration giving a 50% inhibition of growth of normal non-infected cells)
Method: as §1, §2

[2] = as above; assay type: cell-based, human; conditions: human; MT-2 cells without HIV, 7 days, viable cell count by colorimetry; read-out: IC50 (concentration giving a 50% inhibition of growth of normal non-infected cells)
Method: as §1, §2

[3] = acute toxicity (LD50) in mice; conditions: mouse, in vivo
Method: The LD50 value of D-glucaro-δ-lactam sodium salt in mice is not less than 3 g/kg by the intraveous injection and not less than 5 g/kg by the oral administration. The LD50 value of D-glucaro-δ-lactam methyl ester in mice is not less than 5 g/kg by the intraveous injection and not less than 10 g/kg by the oral administration. With respect to 6-O-triphenylmethyl-D-gluco-δ-lactam, the LD50 value is not less than 300 mg/kg in case of the subcutaneous administration in mice.

AIDS patients = conditions: in words, cited from earlier work

**Q.** For `O=C(O)[C@H]1NC(=O)[C@H](O)[C@@H](O)[C@@H]1O` [D-glucaro-δ-lactam calcium salt], which EC50 (HIV; MT-2 cells, with HIV, 7 days, viable cell count by colorimetry) is on record?
**A.** < 0.25 ng/mL

**Q.** And the “TI50 (IC50/EC50)” value (HIV)?
**A.** > 1.00 × 10^6

**Q.** What about the IC50 [1] of the same compound?
**A.** > 250 µg/mL

**Q.** Which EC50 (HIV) does the source give for `O=C1N[C@H](COC(c2ccccc2)(c2ccccc2)c2ccccc2)[C@@H](O)[C@H](O)[C@H]1O` [6-O-triphenylmethyl-D-gluco-δ-lactam] here?
**A.** 0.0386 ng/mL (≈ 9.2e-05 µM)

**Q.** And the “TI50 (IC50/EC50)” value (HIV)?
**A.** 8.19 × 10^5

**Q.** What about the CC50 at 168 h [2] of the same compound?
**A.** 31.7 µg/mL (≈ 75.6 µM)

**Q.** And the LD50 ([3]; sc, subcutaneous administration)?
**A.** ≥ 300 mg/kg

**Q.** What does the source list for `O=C(O)[C@H]1NC(=O)[C@H](O)[C@@H](O)[C@@H]1O` [D-glucaro-δ-lactam sodium salt]?
**A.** LD50 ([3]; intravenous injection): ≥ 3000 mg/kg; LD50 ([3]; oral administration): ≥ 5000 mg/kg

**Q.** With `COC(=O)[C@H]1NC(=O)[C@H](O)[C@@H](O)[C@@H]1O` [D-glucaro-δ-lactam methyl ester] as the compound, how does the LD50 ([3]; intravenous injection) read?
**A.** ≥ 5000 mg/kg

**Q.** And the LD50 ([3]; oral administration)?
**A.** ≥ 10000 mg/kg

**Q.** What does the source list for `Cc1cn([C@H]2C[C@H](N=[N+]=[N-])[C@@H](CO)O2)c(=O)[nH]c1=O` [azidothymidine (AZT), azidothymidine]?
**A.** side effects in clinical application (AIDS patients; listed as AZT): side effects of AZT on bone marrow; side effects in clinical application (AIDS patients): serious side effects such as bone marrow depression, anemia and neurologic disorders such as headache and convulsion
